Reference: patent publication US20230079045A1 (priority 2019, published 2023)

Key:
Assay type in all cases: cell-based, influenza virus
[1] = tested on: IFVA/Mal/302/54; test: cytopathic effect (CPE) antiviral test in MDCK cells, IFVA/Mal/302/54; settings: unidentified influenza virus, MDCK, 120 h, read-out: EC50(IFVA/Mal/302/54), MDCK cells, CPE method, CCK-8 cell viability, 5 days
[2] = tested on: IFVA/Weiss/43; test: cytopathic effect (CPE) antiviral test in MDCK cells, IFVA/Weiss/43; settings: unidentified influenza virus, MDCK, 120 h, read-out: EC50(IFVA/Weiss/43), MDCK cells, CPE method, CCK-8 cell viability, 5 days
[3] = tested on: IFV A/PR/8/34; test: cytopathic effect (CPE) antiviral test in MDCK cells, IFV A/PR/8/34; settings: unidentified influenza virus, PR/8, MDCK, 120 h, read-out: EC50(IFV A/PR/8/34)

SMILES	EC50 [1] [µM]	EC50 [2] [µM]	EC50 [3] [µM]
CC(=O)Nc1ccc2oc(-c3ccnc(C(=O)C4CCN(C(c5ccccc5)c5nnn(C(F)F)n5)CC4)c3)nc2c1 (racemic) [Compound 42, (R/S)—N-(2-(2-(1-((2-(difluoromethyl)-2H-tetrazol-5-yl)(phenyl)methyl)piperidine-4-carbonyl)pyridin-4-yl)benzo[d]oxazol-5-yl)acetamide]	0.01	0.02	0.02
Cn1nnc(C(c2ccccc2)N2CCN(C(=O)c3cc(-c4nc5cc(N6CCCC6=O)ccc5o4)ccn3)CC2)n1 (racemic) [Compound 45, (R/S)-1-(2-(2-(4-((2-methyl-2H-tetrazol-5-yl)(phenyl)methyl)piperazine-1-carbonyl)pyridin-4-yl)benzo[d]oxazol-5-yl)pyrrolidin-2-one]	0.012	0.015	0.027
O=C(Nc1ccc2oc(-c3ccnc(C(=O)N4CCN(C(c5ccccc5)c5nnn(C(F)F)n5)CC4)c3)nc2c1)C1CCC1 (racemic) [Compound 67, (R/S)—N-(2-(2-(4-((2-(difluoromethyl)-2H-tetrazol-5-yl)(phenyl)methyl)piperazine-1-carbonyl)pyridin-4-yl)benzo[d]oxazol-5-yl)cyclobutanecarboxamide]	0.021	0.012	0.017
O=C(c1cc(-c2nc3cc(-c4cnsc4)ccc3o2)ccn1)N1CCN(C(c2ccccc2)c2nnn(C(F)F)n2)CC1 (racemic) [Compound 101, (R/S)-(4-((2-(difluoromethyl)-2H-tetrazol-5-yl)(phenyl)methyl)piperazin-1-yl)(4-(5-(isothiazol-4-yl)benzo[d]oxazol-2-yl)pyridin-2-yl)methanone]	0.006	0.004	0.027
O=C(Nc1ccc2nc(-c3ccnc(C(=O)N4CCN(C(c5ccccc5)c5nnn(C(F)F)n5)CC4)c3)oc2c1)C1CC1 (racemic) [Compound 104, (R/S)—N-(2-(2-(4-((2-(difluoromethyl)-2H-tetrazol-5-yl)(phenyl)methyl)piperazine-1-carbonyl)pyridin-4-yl)benzo[d]oxazol-6-yl)cyclopropanecarboxamide]	0.016	0.012	0.059
Cn1cc(-c2ccc3oc(-c4ccnc(C(=O)N5CCN(C(c6ccccc6)c6nnn(C(F)F)n6)CC5)c4)nc3c2)cn1 (racemic) [Compound 105, (R/S)-(4-((2-(difluoromethyl)-2H-tetrazol-5-yl)(phenyl)methyl)piperazin-1-yl)(4-(5-(1-methyl-1H-pyrazol-4-yl)benzo[d]oxazol-2-yl)pyridin-2-yl)methanone]	0.009	0.007	0.011
Cn1ccnc1-c1ccc2nc(-c3ccnc(C(=O)N4CCN(C(c5ccccc5)c5nnn(C(F)F)n5)CC4)c3)oc2c1 (racemic) [Compound 107, (R/S)-(4-((2-(difluoromethyl)-2H-tetrazol-5-yl)(phenyl)methyl)piperazin-1-yl)(4-(6-(1-methyl-1H-imidazol-2-yl)benzo[d]oxazol-2-yl)pyridin-2-yl)methanone]	0.006	0.002	0.009
CC(C)(F)C(=O)Nc1ccc2oc(-c3ccnc(C(=O)N4CCN(C(c5ccccc5)c5nnn(C(F)F)n5)CC4)c3)nc2c1 (racemic) [Compound 108, (R/S)—N-(2-(2-(4-((2-(difluoromethyl)-2H-tetrazol-5-yl)(phenyl)methyl)piperazine-1-carbonyl)pyridin-4-yl)benzo[d]oxazol-5-yl)-2-fluoro-2-methylpropanamide]	0.006	0.002	0.023
[2H]C([2H])([2H])C(C(=O)Nc1ccc2oc(-c3ccnc(C(=O)N4CCN(C(c5ccccc5)c5nnn(C(F)F)n5)CC4)c3)nc2c1)C([2H])([2H])[2H] (racemic) [Compound 109, (R/S)—N-(2-(2-(4-((2-(difluoromethyl)-2H-tetrazol-5-yl)(phenyl)methyl)piperazine-1-carbonyl)pyridin-4-yl)benzo[d]oxazol-5-yl)-2-(methyl-d3)propanamide]	0.011	0.006	0.012
O=C(c1cc(-c2nc3cc(-c4cnccn4)ccc3o2)ccn1)N1CCN(C(c2ccccc2)c2nnn(C(F)F)n2)CC1 (racemic) [Compound 112, (R/S)-(4-((2-(difluoromethyl)-2H-tetrazol-5-yl)(phenyl)methyl)piperazin-1-yl)(4-(5-(pyrazin-2-yl)benzo[d]oxazol-2-yl)pyridin-2-yl)methanone]	0.008	0.011	0.036
CC(=O)N(C)c1ccc2oc(-c3ccnc(C(=O)N4CCN(C(c5ccccc5)c5nnn(C(F)F)n5)CC4)c3)nc2c1 (racemic) [Compound 113, (R/S)—N-(2-(2-(4-((2-(difluoromethyl)-2H-tetrazol-5-yl)(phenyl)methyl)piperazine-1-carbonyl)pyridin-4-yl)benzo[d]oxazol-5-yl)-N-methylacetamide]	0.018	0.019	0.02
[2H]C([2H])([2H])C(=O)Nc1ccc2oc(-c3ccnc(C(=O)N4CCN(C(c5ccccc5)c5nnn(C(F)F)n5)CC4)c3)nc2c1 (racemic) [Compound 114, (R/S)—N-(2-(2-(4-((2-(difluoromethyl)-2H-tetrazol-5-yl)(phenyl)methyl)piperazine-1-carbonyl)pyridin-4-yl)benzo[d]oxazol-5-yl) Deuterated Acetamide]	0.01	0.019	0.025
O=C(c1cc(-c2nc3cc(-c4nccs4)ccc3o2)ccn1)N1CCN(C(c2ccccc2)c2nnn(C(F)F)n2)CC1 (racemic) [Compound 119, (R/S)-(4-((2-(difluoromethyl)-2H-tetrazol-5-yl)(phenyl)methyl)piperazin-1-yl)(4-(5-(thiazol-2-yl)benzo[d]oxazol-2-yl)pyridin-2-yl)methanone]	0.006	0.002	0.022
O=C(Nc1ccc2oc(-c3ccnc(C(=O)N4CCN(C(c5ccccc5)c5nnn(C(F)F)n5)CC4)c3)nc2c1)C1CC1 (stereo not drawn) [Compound 36, N-(2-(2-(4-((2-(difluoromethyl)-2H-tetrazol-5-yl)(phenyl)methyl)piperazine-1-carbonyl)pyridin-4-yl)benzo[d]oxazol-5-yl)cyclopropanecarboxamide]	0.01	0.004	0.017
Cn1ccnc1-c1ccc2oc(-c3ccnc(C(=O)N4CCN(C(c5ccccc5)c5nnn(C(F)F)n5)CC4)c3)nc2c1 (stereo not drawn) [Compound 72, (4-((2-(difluoromethyl)-2H-tetrazol-5-yl)(phenyl)methyl)piperazin-1-yl)(4-(5-(1-methyl-1H-imidazol-2-yl)benzo[d]oxazol-2-yl)pyridin-2-yl)methanone]	0.004	0.004	0.004
O=C(Nc1ccc2oc(-c3ccnc(C(=O)N4CCN([C@H](c5ccccc5)c5nnn(C(F)F)n5)CC4)c3)nc2c1)[C@@H]1CC1(F)F [Compound 73, (S)—N-(2-(2-(4-((R)-(2-(difluoromethyl)-2H-tetrazol-5-yl)(phenyl)methyl)piperazine-1-carbonyl)pyridin-4-yl)benzo[d]oxazol-5-yl)-2,2-difluorocyclopropane-1-carboxamide]	0.006	0.002	0.003
